≈ marks a conversion by molar mass, not a printed value. Read-outs that look alike come from different tables or passages of the source.
How the values were obtained:
[1] = system: Mycobacterium tuberculosis strain H37Rv; assay: Test 2: MIC determination against M. tuberculosis, resazurin fluorescence; format: cell-based; details: Test 2, M. tuberculosis H37Rv; for MIC90: read-out: Bacterial activity MIC90; for IC50: read-out: Bacterial activity pMIC50 (converted)
[2] = Metabolic stability in liver microsomes (intrinsic clearance); format: in vitro ADME; details: microsomes
Description: The test compound was incubated under the generic condition (0.5 mg/ml microsomal protein, 1 mM NADPH, 1 mM MgCl2, and 0.1 M phosphate buffer, pH 7.4, 37° C.) at a defined substrate concentration (typically 1 μM) in liver microsomes of selected species across a time course (typically 0, 5, 10, 20, 40 and 60 minutes) at Cyprotex (Cheshire, UK). The liver microsomes, buffer and test compound will be pre-incubated for 5 minutes. The addition of the co-factor NADPH will initiate the reaction and the reaction was terminated by addition of acetonitrile. The samples were centrifuged prior to analysis by LC-MS/MS analysis. The relative amount of parent compound remaining in the active incubations vs. the control incubations (t=0 mins) for each compound was measured by peak area comparison. The in vitro metabolic half-life (t1/2) was calculated using the slope of the log-linear regression from the percentage parent compound remaining versus time relationship (κ), The in vitro intrinsic clearance (Cl^int) (μl/min/mg microsomal protein) was calculated using the in vitro metabolic half-life, incubation volume and the weight of microsomal protein in the incubation.

[3] = HTChem stab assay (chemical stability in buffer pH2, pH4 and pH7 vs DMSO reference); format: physicochemical
Description: HTChem stab assay was used to assess the chemical stability of the compounds. 72 h stirring at rt in a buffer pH2, pH4 and pH7 vs a reference DMSO solution. HTChem stab assay is based on the handbook of Pharmaceutical Stress Testing, Predicting Drug Degradation, second edition, authors Baertschi, Alsante, Reed ISBN 978-143980179-6.
Compounds were plated (1 μl 10 mM DMSO stock in 96 well plate (DMSO control+3 pH conditions), one plate per condition).
200 μL of respectively DMSO, Buffer/DMSO mix pH2, Buffer/DMSO mix pH4 and Buffer/DMSO mix pH7 was added.
After 72 h shaking (300 rpm) at room temperature the samples were analysed by LC/UV/MS. Chromatograms of samples (stability conditions) were compared with the chromatograms of control sample (DMSO). Extra peaks were flagged and identified by mass spectrometry. Sample purity (reference included) were reported.
• pH3 buffer: For 11; weigh 4.14 g NaH2PO4·H2O, add 600 ml H2O, add H3PO4 to pH3, add H2O to 1000 ml. Filter over 0.2 μm and store at 4° C. Expires after 30 days. • pH6 buffer: For 1 l; weigh 4.14 g NaH2PO4·H2O, add 600 ml H2O, add 1N NaOH to pH6, add H2O to 1000 ml. Filter over […] and store at 4° C. Expires after 30 days.
• pH2 Buffer/DMSO (StabSolvent): mix 2 parts of HCl 0.1N with 1 part of DMSO • pH4 Buffer/DMSO (StabSolvent): mix 2 parts of buffer pH3 with 1 part of DMSO • pH7 Buffer/DMSO (StabSolvent): mix 2 parts of buffer pH6 with 1 part of DMSO measure pH prior to use.
Instrument: Acquity UPLC; Column: Acquity HSS T3, 50 mm length×2.1 mm i.d., 1.8 μm particle size. Detectors: PDA (250-350 nm) and SQD2 (90-1500m/z). Mobile phase A: 0.1% Formic acid in water; Mobile phase B: 0.1% Formic acid in Acetonitrile.
Injection volume: 5 μL, flow rate 0.6 mL/min.
Data processing including peak integration and identification was done with Waters OpenLynx software.

[4] = Mycobacterium tuberculosis, H37RV

SMILES | Bacterial activity pMIC50 [1] | MIC90 [1] [µM] | Metabolic Stability (liver microsome intrinsic clearance) Clearance (mouse, μl/min./mg protein) ([2]; mouse) [μl/min./mg protein] | Metabolic Stability Half life (mouse, min.) ([2]; mouse) [h] | MIC90 [1, 4] [µM] | IC50 [1, 4] [pM] | Chemical stability data, Vehicle DMSO ([3]; 72 h, 50 µM) [%] | Chemical stability data, Buffer pH2 ([3]; 72 h, 50 µM, pH 2) [%] | Chemical stability data, Buffer pH4 ([3]; 72 h, 50 µM, pH 4) [%] | Chemical stability data, Buffer pH7 ([3]; 72 h, 50 µM, pH 7) [%] | also measured
CCc1nc2ncc(C)cn2c1C(=O)NCc1ccc(-c2nc3n(n2)CCC(C(F)(F)F)C3)cc1 (single isomer, unassigned) [Compound 1b] | 8.576 | 0.007 (≈ 0.00338 µg/mL) | 7.8 | 2.97 |  |  |  |  |  |  | Metabolic Stability (liver microsome intrinsic clearance) Clearance (human, μl/min./mg protein) ([2]; human): 7.81 μl/min./mg protein; Metabolic Stability Half life (human, min.) ([2]; human): 2.97 h
CCc1nc2ncccn2c1C(=O)NCc1ccc(-c2nc3n(n2)CC[C@@H](C(F)(F)F)C3)c(F)c1 (single isomer, unassigned) [Compound 73] | 7.18 | 0.35 (≈ 0.171 µg/mL) | <7.7 | >3 |  |  |  |  |  |  | 
CCc1nc2ncccn2c1C(=O)NCc1ccc(-c2nc3n(n2)CC[C@H](C(F)(F)F)C3)c(F)c1 (single isomer, unassigned) [Compound 74] | 6.94 | >0.5 | <7.7 | >3 |  |  |  |  |  |  | 
CCc1nc2n(c1C(=O)NCc1ccc(-c3nc4n(n3)CC[C@H](C(F)(F)F)C4)c(F)c1)CCCC2 (single isomer, unassigned) [Compound 77] | 7.6 | 0.098 (≈ 0.0481 µg/mL) | 26.1 | 0.885 |  |  |  |  |  |  | 
CCc1nc2ncc(C)cn2c1C(=O)NCc1ccc(-c2cn3c(n2)CC(C(F)(F)F)CC3)cc1 (stereo not shown) [Compound 3ab] |  |  |  |  | 0.009 (≈ 0.00434 µg/mL) | 3550 |  |  |  |  | half-life at 1 µM ([2]; human, pH 7.4, Metabolic Stability Half life (human, min.)): 1.54 h; microsomal CLint at 1 µM ([2]; human, pH 7.4, human liver microsomes, read-out: Metabolic Stability (liver microsome intrinsic clearance) Clearance (human, μl/min./mg protein)): 15 µL/min/mg; half-life at 1 µM ([2]; mouse, pH 7.4, Metabolic Stability Half life (mouse, min.)): 1.7 h; microsomal CLint at 1 µM ([2]; mouse, pH 7.4, mouse liver microsomes, read-out: Metabolic Stability (liver microsome intrinsic clearance) Clearance (mouse, μl/min./mg protein)): 13.6 µL/min/mg
CCc1nc2ncc(CN)cn2c1C(=O)NCc1ccc(-c2nc3n(n2)CCC(C(F)(F)F)C3)cc1 (stereo not shown) [Compound 16ab] |  |  |  |  |  | > 500000 | 77 | 74 | 74 | 80 | 
CCc1nc2ncc(C)cn2c1C(=O)NCc1ccc(-c2nc3n(c2C)CCC(C(F)(F)F)C3)cc1 (stereo not shown) [Compound 19ab] |  |  |  |  | 0.047 (≈ 0.0233 µg/mL) | 11500 | 98 | 98 | 98 | 98 | 
CCc1nc2ncc(C)cn2c1C(=O)NCc1ccc(-c2nn3c(c2C)CC(C(F)(F)F)CC3)cc1 (stereo not shown) [Compound 21ab] |  |  |  |  | 0.011 (≈ 0.00546 µg/mL) | 3490 | 100 | 100 | 100 | 100 | 
CCc1nc2ncc(C)cn2c1C(=O)NCc1ccc(-c2nc3n(n2)CCC(C2CC2)C3)cc1 (stereo not shown) [Compound 27ab] |  |  |  |  | 0.014 (≈ 0.00638 µg/mL) | 4610 | 100 | 100 | 100 | 100 | 
CCCC1CCn2nc(-c3ccc(CNC(=O)c4c(CC)nc5ncc(C)cn45)cc3)nc2C1 (stereo not shown) [Compound 28ab] |  |  |  |  | 0.011 (≈ 0.00503 µg/mL) | 3660 | 100 | 100 | 100 | 100 | 
CCc1nc2ncc(C)cn2c1C(=O)NCc1ccc(-c2nc3n(n2)CCCC3)c(F)c1 [Compound 32ab] |  |  |  |  | 0.248 (≈ 0.108 µg/mL) | 79800 | 100 | 100 | 100 | 100 | 
CCc1nc2ncc(C)cn2c1C(=O)NCc1ccc(-c2nc3n(n2)CCC(OC(F)(F)F)C3)cc1 (stereo not shown) [Compound 33ab] |  |  |  |  | 0.039 (≈ 0.0195 µg/mL) | 12700 | 100 | 64 | 100 | 100 | 
O=C(NCc1ccc(-c2cn3c(n2)CC(C(F)(F)F)CC3)nc1)c1c(C(F)(F)F)nc2ccccn12 (stereo not shown) [Compound 36ab] | <6.301 |  |  |  |  |  |  |  |  |  | Chemical stability data, Buffer pH2 ([3]; buffer pH2/DMSO, 72 h stirring at rt): 100%; Chemical stability data, Buffer pH4 ([3]; buffer pH4/DMSO, 72 h stirring at rt): 100%; Chemical stability data, Buffer pH7 ([3]; buffer pH7/DMSO, 72 h stirring at rt): 100%; Chemical stability data, Vehicle DMSO ([3]; reference DMSO solution, 72 h stirring at rt): 100%
